Experimental findings from ChEMBL document CHEMBL1955755, “Novel imidazo[2,1-b][1,3,4]thiadiazole carrying rhodanine-3-acetic acid as potential antitubercular agents” (2012) are described below.

Values after ≈ are worked out from the molar mass of the structure shown.

The subject of the experiment is Mycobacterium tuberculosis. Description: Antitubercular activity against Mycobacterium tuberculosis H37Rv ATCC 27294 after 5 days by microplate alamar blue assay. It counts as functional. As to conditions: H37Rv ATCC 27294, 120 h. Background: The colour change of resazurin is a common sign of viable cells or microbes.

As a reminder, the MIC is the lowest concentration that inhibits growth of the organism. A higher MIC goes with weaker potency.

As to `O=C1NC(=O)/C(=C/c2c(-c3ccc([N+](=O)[O-])cc3)nc3sc(C(F)(F)F)nn23)S1`, the minimum inhibitory concentration (MIC) was 50 µg/mL (≈ 113 µM).

`Cc1ccc(-c2nc3sc(C(F)(F)F)nn3c2/C=C2\SC(=S)NC2=O)cc1` came in with an MIC of 6.25 µg/mL (≈ 14.7 µM).

In turn, `COc1ccc(-c2nc3sc(C(F)(F)F)nn3c2/C=C2\SC(=S)N(CC(=O)O)C2=O)cc1` showed an MIC of 1.56 µg/mL (≈ 3.12 µM).

For the molecule `O=C(O)CN1C(=O)/C(=C/c2c(-c3ccccc3)nc3sc(C(F)(F)F)nn23)SC1=S`, the MIC was 6.25 µg/mL (≈ 13.3 µM).

In the case of `O=C1NC(=O)/C(=C/c2c(-c3ccccc3)nc3sc(C(F)(F)F)nn23)S1`, 25 µg/mL (≈ 63.1 µM) was the least that counted as inhibitory (MIC).

For the molecule `O=C1NC(=S)S/C1=C\c1c(-c2ccc(Br)cc2)nc2sc(C(F)(F)F)nn12`, the minimal inhibitory concentration (MIC) stood at 3.12 µg/mL (≈ 6.35 µM).

On to `O=C1NC(=S)S/C1=C\c1c(-c2ccccc2)nc2sc(C(F)(F)F)nn12`, for which the minimal inhibitory concentration (MIC) turned out to be 6.25 µg/mL (≈ 15.2 µM).

With `O=C1NC(=S)S/C1=C\c1c(-c2ccc(Cl)cc2)nc2sc(C(F)(F)F)nn12`, the minimal inhibitory concentration (MIC) stood at 50 µg/mL (≈ 112 µM).

The molecule `COc1ccc(-c2nc3sc(C(F)(F)F)nn3c2/C=C2\SC(=S)NC2=O)cc1` gave an MIC of 25 µg/mL (≈ 56.5 µM).

For the molecule `O=C(O)CN1C(=O)/C(=C/c2c(-c3ccc([N+](=O)[O-])cc3)nc3sc(C(F)(F)F)nn23)SC1=S`, the MIC was found to be 25 µg/mL (≈ 48.5 µM).

`CO[C@H]1/C=C/O[C@@]2(C)Oc3c(C)c(O)c4c(O)c(c(/C=N/N5CCN(C)CC5)c(O)c4c3C2=O)NC(=O)/C(C)=C\C=C\[C@H](C)[C@H](O)[C@@H](C)[C@@H](O)[C@@H](C)[C@H](OC(C)=O)[C@@H]1C` [RIFAMPIN]: it took 0.78 µg/mL (≈ 0.948 µM) to inhibit growth (MIC).

With `O=C1NC(=O)/C(=C/c2c(-c3ccc(Br)cc3)nc3sc(C(F)(F)F)nn23)S1`, the MIC is 25 µg/mL (≈ 52.6 µM).

Consider `O=C1NC(=O)/C(=C/c2c(-c3ccc(Cl)cc3)nc3sc(C(F)(F)F)nn23)S1`, for which the MIC was found to be 3.12 µg/mL (≈ 7.24 µM).

The molecule `COc1ccc(-c2nc3sc(C(F)(F)F)nn3c2/C=C2\SC(=O)NC2=O)cc1` displayed a minimal inhibitory concentration (MIC) of 25 µg/mL (≈ 58.6 µM).

For `Cc1ccc(-c2nc3sc(C(F)(F)F)nn3c2/C=C2\SC(=S)N(CC(=O)O)C2=O)cc1`, the MIC was 3.12 µg/mL (≈ 6.44 µM).

`O=C(O)CN1C(=O)/C(=C/c2c(-c3ccc(Br)cc3)nc3sc(C(F)(F)F)nn23)SC1=S` returned an MIC of 3.12 µg/mL (≈ 5.68 µM).

For the molecule `O=C1NC(=O)/C(=C/c2c(-c3ccc(F)cc3)nc3sc(C(F)(F)F)nn23)S1`, the lowest concentration to inhibit growth (MIC) was 25 µg/mL (≈ 60.3 µM).

For the molecule `NNC(=O)c1ccncc1` [ISONIAZID], 1.56 µg/mL (≈ 11.4 µM) was the least that counted as inhibitory (MIC).

`O=C1NC(=S)S/C1=C\c1c(-c2ccc(F)cc2)nc2sc(C(F)(F)F)nn12` had an MIC of 6.25 µg/mL (≈ 14.5 µM).

The molecule `Cc1ccc(-c2nc3sc(C(F)(F)F)nn3c2/C=C2\SC(=O)NC2=O)cc1` returned a minimal inhibitory concentration (MIC) of 25 µg/mL (≈ 60.9 µM).

`O=C(O)CN1C(=O)/C(=C/c2c(-c3ccc(F)cc3)nc3sc(C(F)(F)F)nn23)SC1=S` yielded an MIC of 3.12 µg/mL (≈ 6.39 µM).

As for `O=C(O)CN1C(=O)/C(=C/c2c(-c3ccc(Cl)cc3)nc3sc(C(F)(F)F)nn23)SC1=S`, the MIC worked out at 3.12 µg/mL (≈ 6.18 µM).

Turning to `O=C1NC(=S)S/C1=C\c1c(-c2ccc([N+](=O)[O-])cc2)nc2sc(C(F)(F)F)nn12`, the MIC came out at 50 µg/mL (≈ 109 µM).
